Reference: US10618903B2, “Heteroaryl substituted aminopyridine compounds” (BRISTOL-MYERS SQUIBB COMPANY, priority 2015, dated 2020)

Experiments:
IRAK4 = IRAK4 (Homo sapiens (Human), UniProt Q9NWZ3); assay: IRAK4 Inhibition Assay; assay type: biochemical; conditions: ATP 500 μM; IRAK4 0.6 nM
Procedure, shortened: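 Enzyme 0.6 nM, ATP 500 μM, FL-peptide 1.5 μM, DMSO 1.6%; HEPES pH 7.2/MgCl2/Brij 35/DTT buffer. RT, 60 min, EDTA stop. Mobility-shift product/substrate ratio; % inhib vs no-enzyme and vehicle controls.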

[1] = system: IL-6 levels in human whole blood stimulated with a TLR2 agonist; assay: IRAK4 Whole Blood Assay (lipoteichoic acid/TLR2-stimulated IL-6); assay type: cell-based; conditions: lipoteichoic acid 10 μg/mL, IL-6 readout
Procedure: Human whole blood containing the anti-coagulant ACD-A was plated in 384-well plate (25 μL/well) and incubated with compounds for 60 minutes at 37° C. in a 5% CO2 incubator. The blood was stimulated with a TLR2 agonist, 10 μg/mL final concentration of lipoteichoic acid (Invivogen, San Diego, Calif.) in 25 μL RPMI (Gibco) for 5 hours in a 5% CO2 incubator. At the end of the incubation, plates were centrifuged at 2300 rpm for 5 minutes. Supernatants were harvested and analyzed for IL-6 levels by Flow Cytometry beads assay (BD Biosciences, San Jose, Calif.).

IRAK4, sequence (Q9NWZ3 whole entry): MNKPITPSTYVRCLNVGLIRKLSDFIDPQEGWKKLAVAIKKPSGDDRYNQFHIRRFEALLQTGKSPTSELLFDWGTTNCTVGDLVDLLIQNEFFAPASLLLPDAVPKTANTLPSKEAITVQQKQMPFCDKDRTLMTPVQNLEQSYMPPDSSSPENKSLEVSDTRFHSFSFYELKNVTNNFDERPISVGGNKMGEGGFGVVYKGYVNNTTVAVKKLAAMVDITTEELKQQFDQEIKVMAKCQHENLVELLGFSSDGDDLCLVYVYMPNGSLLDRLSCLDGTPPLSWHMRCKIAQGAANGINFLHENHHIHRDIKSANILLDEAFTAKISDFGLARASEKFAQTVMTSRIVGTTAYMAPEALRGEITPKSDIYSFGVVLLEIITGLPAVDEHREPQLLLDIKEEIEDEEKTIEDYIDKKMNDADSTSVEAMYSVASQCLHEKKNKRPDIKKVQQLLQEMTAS

Row | Structure (SMILES) | IC50 (IRAK4) [nM] | EC50 [1] [nM] | EC50 ([1]; Homo sapiens) [nM]
1 | CC(C)Nc1cc(-c2cnc3cccnn23)ncc1C(=O)NC[C@@H](F)C(C)(C)O [Example 21, (R)—N-(2-fluoro-3-hydroxy-3-methylbutyl)-6-(imidazo[1,2-b]pyridazin-3-yl)-4-(isopropylamino)nicotinamide] | 7 | 2530 | –
2 | CC(C)(O)[C@H](F)CNC(=O)c1cnc(-c2cnn3cc(C#N)cnc23)cc1NC1CCCOC1 (single isomer, unassigned) [Example 95] | 6 | 1160 | –
3 | CC(C)(O)[C@H](F)CNC(=O)c1cnc(-c2cnn3cc(C#N)cnc23)cc1N[C@@H]1CCN(c2ncc(F)cn2)C1 [Example 109, 6-(6-cyanopyrazolo[1,5-a]pyrimidin-3-yl)-N—((R)-2-fluoro-3-hydroxy-3-methylbutyl)-4-(((R)-1-(5-fluoropyrimidin-2-yl)pyrrolidin-3-yl)amino)nicotinamide] | 5 | – | 440
4 | CC(C)Nc1cc(-c2ccn(-c3ccncc3)n2)ncc1C(=O)NC[C@@H](F)C(C)(C)O [Example 156, (R)—N-(2-fluoro-3-hydroxy-3-methylbutyl)-4-(isopropylamino)-6-(1-(pyridin-4-yl)-1H-pyrazol-3-yl)nicotinamide] | 14 | – | 2340
5 | CC(C)(O)[C@H](F)CNC(=O)c1cnc(-c2cnn3cc(C#N)cnc23)cc1N[C@@H]1CCN(c2ncccn2)C1 [Example 118, 6-(6-cyanopyrazolo[1,5-a]pyrimidin-3-yl)-N—((R)-2-fluoro-3-hydroxy-3-methylbutyl)-4-(((R)-1-(pyrimidin-2-yl)pyrrolidin-3-yl)amino)nicotinamide] | 9 | – | 710
6 | CC(C)(O)[C@H](F)CNC(=O)c1cnc(-c2cnn3cc(C#N)cnc23)cc1NC1COC1 [Example 99, (R)-6-(6-cyanopyrazolo[1,5-a]pyrimidin-3-yl)-N-(2-fluoro-3-hydroxy-3-methylbutyl)-4-(oxetan-3-ylamino) nicotinamide] | 4 | – | 600
7 | CC(C)Nc1cc(-c2cnn3cc(Cl)cnc23)ncc1C(=O)N[C@H]1CC[C@H](C(=O)NC2CC2)CC1 [Example 28, 6-(6-chloropyrazolo[1,5-a]pyrimidin-3-yl)-N-((1r,4r)-4-(cyclopropylcarbamoyl)cyclohexyl)-4-(isopropylamino)nicotinamide] | 5 | – | 1920
8 | CC1(Nc2cc(-c3cnn4cc(Cl)cnc34)ncc2C(=O)NC[C@@H](F)C(C)(C)O)CC1 [Example 80, (R)-6-(6-chloropyrazolo[1,5-a]pyrimidin-3-yl)-N-(2-fluoro-3-hydroxy-3-methylbutyl)-4-((1-methylcyclopropyl)amino)nicotinamide] | 6 | – | 840
9 | CCC(C)Nc1cc(-c2cnn3cc(Cl)cnc23)ncc1C(=O)NC[C@@H](F)C(C)(C)O (stereo in doubt) [Example 69, 4-(((R)-sec-butyl)amino)-6-(6-chloropyrazolo[1,5-a]pyrimidin-3-yl)-N—((R)-2-fluoro-3-hydroxy-3-methylbutyl)nicotinamide] | 2 | – | 3170
10 | CC(C)(O)[C@H](F)CNC(=O)c1cnc(-c2cnn3cc(Cl)cnc23)cc1NC1CCCOC1 (single isomer, unassigned) [Example 3] | 6 | – | 380
11 | CC(C)(O)[C@H](F)CNC(=O)c1cnc(-c2cnn3cc(Cl)cnc23)cc1NCC1(O)CCC1 [Example 51, (R)-6-(6-chloropyrazolo[1,5-a]pyrimidin-3-yl)-N-(2-fluoro-3-hydroxy-3-methylbutyl)-4-(((1-hydroxycyclobutyl)methyl)amino)nicotinamide] | 10 | – | 1250
12 | CNC(=O)[C@H]1CC[C@H](NC(=O)c2cnc(-c3cnn4cc(Cl)cnc34)cc2NC2CC2)CC1 [Example 25, 6-(6-chloropyrazolo[1,5-a]pyrimidin-3-yl)-4-(cyclopropylamino)-N-((1r,4r)-4-(methylcarbamoyl)cyclohexyl)nicotinamide] | 5 | – | 460

Other lines, results leading:

Row | IC50 (IRAK4) [nM] | EC50 [1] [nM] | EC50 ([1]; Homo sapiens) [nM] | Structure (SMILES)
13 | 14 | – | 710 | COC(=O)N[C@H]1CC[C@H](NC(=O)c2cnc(-c3cnn4cc(Cl)cnc34)cc2Nc2cnn(C)c2)CC1 [Example 257, methyl ((1r,4r)-4-(6-(6-chloropyrazolo[1,5-a]pyrimidin-3-yl)-4-((1-methyl-1H-pyrazol-4-yl)amino)nicotinamido)cyclohexyl)carbamate]
14 | 3 | – | 370 | CC(C)(O)[C@H](F)CNC(=O)c1cnc(-c2cnc3cc(Cl)cnn23)cc1Nc1cnn(C2CCC2)c1 [Example 285, (R)-6-(7-chloroimidazo[1,2-b]pyridazin-3-yl)-4-((1-cyclobutyl-1H-pyrazol-4-yl)amino)-N-(2-fluoro-3-hydroxy-3-methylbutyl)nicotinamide]
15 | 2 | – | 910 | CC(C)(O)[C@H]1CC[C@H](NC(=O)c2cnc(-c3cnc4cc(Cl)cnn34)cc2Nc2cnn(CC(F)F)c2)CC1 [Example 264, 6-(7-chloroimidazo[1,2-b]pyridazin-3-yl)-4-((1-(2,2-difluoroethyl)-1H-pyrazol-4-yl)amino)-N-((1r,4r)-4-(2-hydroxypropan-2-yl)cyclohexyl)nicotinamide]
16 | 2 | 690 | – | CC(C)(O)[C@H](F)CNC(=O)c1cnc(-c2cnn3cc(Cl)cnc23)cc1Nc1cnn(CC(F)(F)F)c1 [Example 237, (R)-6-(6-chloropyrazolo[1,5-a]pyrimidin-3-yl)-N-(2-fluoro-3-hydroxy-3-methylbutyl)-4-((1-(2,2,2-trifluoroethyl)-1H-pyrazol-4-yl)amino)nicotinamide]
17 | 13 | – | 810 | COC(=O)N[C@H]1CC[C@H](NC(=O)c2cnc(-c3cnc4cc(C#N)cnn34)cc2NC(C)C)CC1 [Example 223, methyl((1r,4r)-4-(6-(7-cyanoimidazo[1,2-b]pyridazin-3-yl)-4-(isopropylamino)nicotinamido)cyclohexyl)carbamate]
18 | 6 | – | 550 | CC(C)(O)[C@H](F)CNC(=O)c1cnc(-c2cnc3cc(C#N)cnn23)cc1NC1CCC(F)C1 (stereo partly drawn) [Example 208, 6-(7-cyanoimidazo[1,2-b]pyridazin-3-yl)-N—((R)-2-fluoro-3-hydroxy-3-methylbutyl)-4-((3-fluorocyclopentyl)amino)nicotinamide]
19 | 3 | – | 540 | CC(C)(O)[C@H](F)CNC(=O)c1cnc(-c2cnn3cc(C#N)cnc23)cc1Nc1cnn(C(F)F)c1 [Example 234, (R)-6-(6-cyanopyrazolo[1,5-a]pyrimidin-3-yl)-4-((1-(difluoromethyl)-1H-pyrazol-4-yl)amino)-N-(2-fluoro-3-hydroxy-3-methylbutyl)nicotinamide]
20 | 16 | – | 340 | CC(=O)N[C@H]1CC[C@H](NC(=O)c2cnc(-c3cnc4cc(C#N)cnn34)cc2NC(C)C)CC1 [Example 220, N-((1r,4r)-4-acetamidocyclohexyl)-6-(7-cyanoimidazo[1,2-b]pyridazin-3-yl)-4-(isopropylamino)nicotinamide]
21 | 5 | – | 550 | CC(=O)N[C@H](C)CCNC(=O)c1cnc(-c2cnn3cc(Cl)cnc23)cc1NC(C)C [Example 167, (R)—N-(3-acetamidobutyl)-6-(6-chloropyrazolo[1,5-a]pyrimidin-3-yl)-4-(isopropylamino) nicotinamide]
22 | 2 | – | 430 | C[C@@H](CF)Nc1cc(-c2cnc3cc(C#N)cnn23)ncc1C(=O)NC[C@@H](F)C(C)(C)O [Example 200, 6-(7-cyanoimidazo[1,2-b]pyridazin-3-yl)-N—((R)-2-fluoro-3-hydroxy-3-methylbutyl)-4-(((S)-1-fluoropropan-2-yl)amino)nicotinamide]
23 | 3 | – | 930 | O=C(N[C@H]1CC[C@H](O)CC1)c1cnc(-c2cnn3cc(Cl)cnc23)cc1Nc1cnn(CC(F)F)c1 [Example 252, 6-(6-chloropyrazolo[1,5-a]pyrimidin-3-yl)-4-((1-(2,2-difluoroethyl)-1H-pyrazol-4-yl)amino)-N-((1r,4r)-4-hydroxycyclohexyl) nicotinamide]
24 | 2 | – | 890 | CC(C)Nc1cc(-c2cnc3cc(C#N)cnn23)ncc1C(=O)NCCc1cccs1 [Example 213, 6-(7-cyanoimidazo[1,2-b]pyridazin-3-yl)-4-(isopropylamino)-N-(2-(thiophen-2-yl)ethyl)nicotinamide]
25 | 16 | – | 760 | CC(C)Nc1cc(-c2cnn3cc(Cl)cnc23)ncc1C(=O)NCCCS(C)(=O)=O [Example 168, 6-(6-chloropyrazolo[1,5-a]pyrimidin-3-yl)-4-(isopropylamino)-N-(3-(methylsulfonyl)propyl)nicotinamide]
26 | 18 | – | 450 | CC(=O)N[C@H]1CC[C@H](NC(=O)c2cnc(-c3cnc4cc(Cl)cnn34)cc2NC(C)C)CC1 [Example 219, N-((1r,4r)-4-acetamidocyclohexyl)-6-(7-chloroimidazo[1,2-b]pyridazin-3-yl)-4-(isopropylamino)nicotinamide]
27 | 9 | – | 590 | Cn1cc(Nc2cc(-c3cnc4cc(C#N)cnn34)ncc2C(=O)NC[C@@H](F)C(C)(C)O)cn1 [Example 274, (R)-6-(7-cyanoimidazo[1,2-b]pyridazin-3-yl)-N-(2-fluoro-3-hydroxy-3-methylbutyl)-4-((1-methyl-1H-pyrazol-4-yl)amino)nicotinamide]
